The values below are quoted from earlier work in patent US20080021016A1, “Combined Pharmaceutical Composition for the Inhibition of the Decline of Cognitive Functions” (priority 2004, published 2008).

For series [1] the following is noted: 1 and 10 mg/kg after oral administration.
For series [2] the following is noted: single 0.7 mg/kg oral treatment.
The conditions of series [3]: single oral dose of 3 mg/kg sc.
The conditions of series [4]: 10 and 30 mg/kg after oral treatment.
A further series deals with T1, central 5-HT2C receptors (Homo sapiens, UniProt P28335).
T1 sequence (P28335 33-458): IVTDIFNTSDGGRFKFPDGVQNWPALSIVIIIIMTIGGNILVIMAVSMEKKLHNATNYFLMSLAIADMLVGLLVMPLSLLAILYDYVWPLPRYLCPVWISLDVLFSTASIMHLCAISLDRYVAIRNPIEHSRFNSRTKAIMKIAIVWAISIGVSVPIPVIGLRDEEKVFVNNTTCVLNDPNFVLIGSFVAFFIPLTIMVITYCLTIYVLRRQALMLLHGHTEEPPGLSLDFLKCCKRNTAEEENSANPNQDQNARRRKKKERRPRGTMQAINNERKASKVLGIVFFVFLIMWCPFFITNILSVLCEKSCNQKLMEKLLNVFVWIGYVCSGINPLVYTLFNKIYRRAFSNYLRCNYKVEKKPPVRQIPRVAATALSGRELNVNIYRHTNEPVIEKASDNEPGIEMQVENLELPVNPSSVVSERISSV

The next series deals with central 5-HT2A receptors (Homo sapiens, UniProt P28223).
Sequence of central 5-HT2A receptors (P28223 whole entry): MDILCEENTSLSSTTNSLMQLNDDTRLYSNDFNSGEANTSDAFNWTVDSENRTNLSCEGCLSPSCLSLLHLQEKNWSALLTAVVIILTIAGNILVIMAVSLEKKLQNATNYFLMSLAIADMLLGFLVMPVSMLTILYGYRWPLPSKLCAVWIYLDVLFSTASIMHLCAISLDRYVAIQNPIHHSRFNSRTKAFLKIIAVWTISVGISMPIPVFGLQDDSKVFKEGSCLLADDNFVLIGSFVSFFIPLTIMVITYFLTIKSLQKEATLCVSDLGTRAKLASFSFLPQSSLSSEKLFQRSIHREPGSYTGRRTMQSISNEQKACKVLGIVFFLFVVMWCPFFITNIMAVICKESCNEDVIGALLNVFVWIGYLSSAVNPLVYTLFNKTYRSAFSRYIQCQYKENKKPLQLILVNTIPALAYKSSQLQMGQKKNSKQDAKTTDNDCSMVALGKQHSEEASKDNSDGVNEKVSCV

Take “(1R,2S,4R)-(-)-2-[N,N-(dimethylaminoethoxy)]-2-phenyl-1,7,7-trimethylbicyclo[2.2.1]heptane [deramciclane]”: the “activity in the Vogel punished drinking test” value in series [1] was “active”. The “time spent with social interactions” value in series [2] is on record as “increased the time spent with social interactions”. Further, in series [3], the “activity in the light-dark model” value was “active”. Further, in series [4], the “activity in the marble burying model” value is given as “active”. On central 5-HT2C receptors, the “binding to central 5-HT2C receptors” value is recorded as “significantly bound”. Further, the “binding to central 5-HT2A receptors” value at central 5-HT2A receptors was “significantly bound”.
